Data on 5 compounds can be found in publication PMC4130364, “Kinetics of Mushroom Tyrosinase and Melanogenesis Inhibition by N-Acetyl-pentapeptides” (The Scientific World Journal, 2014).

pIC50, pKi: −log10 of the molar value.

In data set [1] the test system is B16F10 melanoma cells. The experiment in a line: Assessment of cellular melanin content (α-MSH-induced melanogenesis). In kind it is cell-based, mouse. The method, then:
Cellular melanin content was determined as described previously. Briefly, 1 × 10^5 B16F10 cells were seeded in 24-well plates and cultured at 37°C and 5% CO2 for 48 h. Subsequently, the cells were treated with 100 nM α-MSH for 24 h, followed by various concentrations (0, 0.1, 0.5, and 1 mg/mL) of Ac-P4 or kojic acid for 24 h. The cells were washed twice with PBS and cell pellets were then dissolved in 100 μL of 1 N NaOH in 10% DMSO, for 1 h at 80°C. The relative melanin content was determined by measuring the absorbance at 405 nm, using the ELISA reader (TECAN, Austria). The melanin content was calculated using the following equation: (Δsample/Δcontrol) × 100%. All determinations were performed in triplicate.

For data set [2], the system named is diphenolase. The arrangement: method as in PMID 7714722. Conditions: ref [40], [41]; cited from earlier work.
Data set [3] has as its target T1, mushroom tyrosinase (Agaricus bisporus, UniProt C7FF04). In words: Inhibitory effect on mushroom tyrosinase (diphenolase activity, oxidation of L-DOPA). The conditions noted are these: for IC50: 1 mM L-DOPA substrate, 25°C, 30 min, means ± SD of three replicates, read-out: IC50 against diphenolase activity of mushroom tyrosinase (converted). Format: biochemical. The procedure: In a 96-well plate, 20 μL of 0, 0.01, 0.05, 0.1, 0.2, 0.5, and 1 mg/mL of N-acetyl-pentapeptides was mixed with 160 μL of 1 mM L-DOPA. After 20 μL of 212.65 μg/mL of mushroom tyrosinase (in 50 mM potassium phosphate buffer) was added, the solutions were incubated at 25°C for 30 min. All experiments were conducted in triplicate. The absorbance was measured at 475 nm by using an ELISA reader (TECAN, Austria). The tyrosinase inhibitory activity was calculated using the following equation: [(Δcontrol − Δsample)/Δcontrol] × 100%. The IC50 value was determined using regression of a constructing dose-response curve at which 50% target activity is lost.

Data set [4] addresses T1, mushroom tyrosinase. The experiment in a line: Kinetic analysis of tyrosinase inhibition (Lineweaver-Burk plots). Format: biochemical. Conditions: for Inhibition type: Lineweaver-Burk plot analysis; for K IS: inhibition constant from secondary plot (enzyme-substrate complex); for K IS / pKi: L-DOPA 0.25-4 mM, inhibitor 0, 0.1, 0.2 mg/mL; for pKi: inhibition constant from secondary plot. The procedure: In a 96-well plate, the kinetic properties of N-acetyl-pentapeptides (20 μL of 0, 0.1, and 0.2 mg/mL) in the inhibition of tyrosinase (20 μL of 212.65 μg/mL) were determined using various concentrations of L-DOPA (160 μL of 0.25, 0.5, 1, 2, and 4 mM) as substrates. The reaction mixture was measured using an ELISA reader at 475 nm for 10 min. All experiments were conducted in triplicate. The inhibition mechanism was assessed using Lineweaver-Burk plots, and the inhibition constants K IS and K I were obtained from second plots of the apparent 1/V max and apparent K m/V max against the inhibitor concentration, respectively, as described by Liao et al..

Data set [5] deals with T2, intracellular tyrosinase activity in B16F10 cells (Mus musculus, UniProt P11344).
T2 construct: Cell lysate; endogenous in cells; host or cells: B16F10 mouse melanoma cells (BCRC, Hsinchu, Taiwan), α-MSH-stimulated
T2 sequence (P11344 19-533): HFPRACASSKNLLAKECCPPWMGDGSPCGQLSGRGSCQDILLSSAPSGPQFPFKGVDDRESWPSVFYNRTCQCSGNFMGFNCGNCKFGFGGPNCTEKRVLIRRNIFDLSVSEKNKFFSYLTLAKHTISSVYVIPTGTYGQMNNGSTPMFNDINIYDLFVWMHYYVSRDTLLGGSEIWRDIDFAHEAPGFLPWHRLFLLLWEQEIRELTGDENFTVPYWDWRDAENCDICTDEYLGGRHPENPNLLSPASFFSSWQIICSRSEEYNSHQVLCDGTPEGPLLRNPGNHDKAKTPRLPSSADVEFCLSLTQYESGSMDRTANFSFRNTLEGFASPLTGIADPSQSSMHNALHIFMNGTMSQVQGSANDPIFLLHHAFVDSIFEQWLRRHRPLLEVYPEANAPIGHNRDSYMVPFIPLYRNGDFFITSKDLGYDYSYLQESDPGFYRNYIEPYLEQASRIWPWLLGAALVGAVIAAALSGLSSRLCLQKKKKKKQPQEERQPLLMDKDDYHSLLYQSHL
In words: Measurement of intracellular tyrosinase activity (α-MSH-induced). In kind it is cell-based. Conditions: B16-F10, 1 mg/ml, 24 h after 100 nM α-MSH. The procedure: Fig 1. Inhibitory effects of Ac-P4 on α-MSH-induced tyrosinase activity in B16F10 cells. Ac-P4 inhibited α-MSH-induced tyrosinase activity in a dose-dependent manner […]
Measurement of intracellular tyrosinase activity
The cells were seeded in 24-well plates (8 × 10^4 cells/well), and cultured in 37 °C, 5% CO2 for 24 h. Then the cells were treated with 100 nM α-MSH for 24 h and then added Ac-P4 for 24 h. Cells rinsed with PBS twice and lysed with phosphate buffer (pH 6.8) containing 1% Triton X-100 followed by freezing and thawing three times. Centrifugation at 15,000 rpm for 10 min obtained clarified lysates. Cell lysate (90 μL) mixed with fresh prepared L-DOPA (10 μL) at 37 °C for 30 min. Tyrosinase activity was evaluated by the absorbance at 475 nm using an ELISA reader (Tecan, […]
Tyrosinase activity (%) = (△Abssample/△Abscontrol) ×100%.
(also on this page, place not known: (mg/ml)control 0 0.1 0.5 Relative (% control) 0 50 150 200 250 α-MSH + α-MSH - + + + + * 1 of 100 Ac-P4 Tyrosinase activity)
(1 picture or pasted object on this page, not shown here)

Data set [6] has as its system B16F10 cells. In words: Cell viability assay (MTT). In kind it is cell-based, mouse. The conditions noted are these: 0.1 to 1 mg/mL, 24 h. The method, then: B16F10 cells were cultured in Dulbecco's modified Eagle's medium (DMEM; Gibco Life Technologies, Carlsbad, CA, USA), supplemented with 10% fetal bovine serum, 100 units/mL of penicillin G, 100 μg/mL of streptomycin, and 0.25 μg/mL of amphotericin, and then incubated at 37°C with 5% CO2. The viability of cells treated with N-acetyl-pentapeptides was determined using an MTT assay. Briefly, 3 × 10^4 B16F10 cells were seeded and adhered in 96-well plates. After 24 h, DMEM was removed and 200 μL of various concentrations of fresh DMEM and N-acetyl-pentapeptide solution were added, and the cells were incubated for 24 h. After incubation, the medium was removed, and 100 μL of MTT in PBS solution (0.5 mg/mL) was added to each well, and the cells were incubated for 40 min at 37°C. Subsequently, the MTT solution was removed and 100 μL of DMSO was added to each well, and the plate was gently shaken to dissolve the formazan crystals. The absorbance of each well was measured at 570 nm, using the ELISA reader. All determinations were performed in triplicate.

T1 sequence (C7FF04 1-392): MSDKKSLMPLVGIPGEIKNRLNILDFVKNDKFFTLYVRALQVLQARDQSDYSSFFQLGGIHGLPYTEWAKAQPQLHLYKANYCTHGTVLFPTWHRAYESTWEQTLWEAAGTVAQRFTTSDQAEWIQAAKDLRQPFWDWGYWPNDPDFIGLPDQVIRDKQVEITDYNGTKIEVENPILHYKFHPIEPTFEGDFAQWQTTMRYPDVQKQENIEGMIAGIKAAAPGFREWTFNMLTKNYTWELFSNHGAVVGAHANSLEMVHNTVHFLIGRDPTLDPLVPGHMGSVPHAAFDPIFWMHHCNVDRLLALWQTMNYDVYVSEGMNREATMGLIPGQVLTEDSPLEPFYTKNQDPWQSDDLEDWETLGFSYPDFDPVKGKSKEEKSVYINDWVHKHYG

Turning to `O=c1cc(CO)occ1O` [kojic acid, reference compound], the inhibition at 100 µg/mL in data set [1] (Mus musculus, B16-F10, 0.1 mg/mL, 24 h after 100 nM α-MSH, read-out: inhibitory effect on melanin production) was determined as 47.2%. Moreover, the inhibition at 500 µg/mL in data set [1] (Mus musculus, B16-F10, 0.5 mg/mL, 24 h after 100 nM α-MSH, read-out: inhibitory effect on melanin production) is 70.6%. Further, the inhibition at 1000 µg/mL in data set [1] (Mus musculus, B16-F10, 1 mg/mL, 24 h after 100 nM α-MSH, read-out: inhibitory effect on melanin production) is 98.6%. Besides, the pIC50 – broadly, −log10 of the IC50, conventionally taken in molar units – in data set [1] (Mus musculus, B16-F10, B16F10, α-MSH-induced, reillustrated in molarity, read-out: IC50 for inhibitory effect on melanin content) was 2.82. Also, the “inhibition type on diphenolase” value in data set [2] is “mixed-type”.

Take Ac-KSSFR-OH [Ac-P3, Ac-KSSFR]: the 50% inhibitory concentration (IC50) (in general, the concentration that gives 50% inhibition) in data set [3] is 1220 µM. Besides, in data set [3] (peptide concentration 1 mg/mL), the lag time turned out to be 70 s. Besides, in data set [4], the Inhibition type entry is “Mixed”; the “K IS” value is reported as 1.685 mg/mL; the negative-log Ki (pKi) (in general, the negative decadic logarithm of the Ki, by convention in mol/L) was 3.38.

Regarding Ac-RSRFS-OH [Ac-P4, Ac-RSRFS], the lag time in data set [3] (peptide concentration 0.5 mg/mL (b28 words it as concentrations less than 0.5 mg/mL)) came out at 80 s; in data set [3] (peptide concentration 1 mg/mL), 500 s. Further, the “inhibitory effect on melanin production” value worked out at 48.63% in data set [1] (0.1 mg/mL, 24 h after 100 nM α-MSH); 78.18% in data set [1] (0.5 mg/mL, 24 h after 100 nM α-MSH); 94.7% in data set [1] (1 mg/mL, 24 h after 100 nM α-MSH). Moreover, in data set [1] (ratio of melanin content IC50s (mM)), the “fold stronger than kojic acid in inhibiting melanin formation” value was 16.7 fold. The same compound came in with an inhibition at 1000 µg/mL in data set [5] of 57.9%. Besides, the “cytotoxicity in B16F10 cells” value in data set [6] is reported as “did not induce any significant cytotoxicity”. The Inhibition type entry in data set [4] is on record as “Mixed”. The “K IS” value in data set [4] worked out at 0.517 mg/mL.

As to Ac-RSRFK-OH [Ac-P1, Ac-RSRFK], the half-maximal inhibitory concentration (IC50) in data set [3] is 1020 µM. Also, the lag time in data set [3] (peptide concentration 1 mg/mL) was found to be 110 s. In data set [4], the Inhibition type result was “Mixed”, the “K IS” value came to 1.278 mg/mL and the negative-log Ki (pKi) was 3.43.

In the case of Ac-KSRFR-OH [Ac-P2, Ac-KSRFR], the 50% inhibitory concentration (IC50) in data set [3] was 1060 µM. The same compound came in with a lag time in data set [3] (peptide concentration 1 mg/mL) of 80 s. Moreover, in data set [4], the Inhibition type result is “Mixed”, the “K IS” value was found to be 2.003 mg/mL and the negative-log Ki (pKi) is 3.42.
